Laboratory results reported in patent US20240158446A1, “CYCLIC COMPOUND HAVING SELECTIVE INHIBITORY ACTION ON KRAS OVER HRAS AND NRAS” (CHUGAI SEIYAKU KABUSHIKI KAISHA, priority 2021, published 2024).
pKd: −log10 of the molar value. Where two headings read alike, the source gives them in different places. Each block holds one molecule with its values, some of them ahead of it.

Key:
[1] = molecular target: GDP-bound KRAS wild-type protein (Homo sapiens, UniProt P01116); test: Binding to KRAS by surface plasmon resonance (SPR), Single Cycle Kinetics; conditions: GDP-bound KRAS wild-type protein, read-out: KRAS KD
Chain of GDP-bound KRAS wild-type protein (P01116 whole entry): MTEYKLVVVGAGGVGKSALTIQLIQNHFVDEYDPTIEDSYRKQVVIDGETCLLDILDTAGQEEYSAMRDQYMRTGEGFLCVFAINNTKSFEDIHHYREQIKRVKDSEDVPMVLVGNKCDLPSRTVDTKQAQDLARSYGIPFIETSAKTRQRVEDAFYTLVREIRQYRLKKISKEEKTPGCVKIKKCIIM

[2] = molecular target: GDP-bound NRAS wild-type protein (Homo sapiens, UniProt P01111); test: Binding to NRAS by surface plasmon resonance (SPR), Single Cycle Kinetics; conditions: SPR
Chain of GDP-bound NRAS wild-type protein (P01111 whole entry): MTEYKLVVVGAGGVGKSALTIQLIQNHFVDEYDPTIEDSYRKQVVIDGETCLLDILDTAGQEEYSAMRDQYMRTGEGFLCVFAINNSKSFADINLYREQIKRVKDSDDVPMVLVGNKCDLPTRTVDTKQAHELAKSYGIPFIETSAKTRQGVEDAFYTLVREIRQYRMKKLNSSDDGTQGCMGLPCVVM

[3] = molecular target: GDP-bound HRAS wild-type protein (Homo sapiens, UniProt P01112); test: Binding to HRAS by surface plasmon resonance (SPR), Single Cycle Kinetics; conditions: SPR
Chain of GDP-bound HRAS wild-type protein (P01112 whole entry): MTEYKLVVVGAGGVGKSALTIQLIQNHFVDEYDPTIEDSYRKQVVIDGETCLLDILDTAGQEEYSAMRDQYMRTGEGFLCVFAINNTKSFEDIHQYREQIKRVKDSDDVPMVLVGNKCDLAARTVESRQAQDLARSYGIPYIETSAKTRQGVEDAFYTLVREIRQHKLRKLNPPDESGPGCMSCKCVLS

[4] = SPR, Single Cycle Kinetics, 1:1 binding model
[5] = GDP-bound NRAS wild-type protein vs GDP-bound KRAS wild-type protein, KD ratio class
[6] = GDP-bound HRAS wild-type protein vs GDP-bound KRAS wild-type protein, KD ratio class
[7] = GDP-bound NRAS wild-type protein vs GDP-bound KRAS wild-type protein
[8] = GDP-bound HRAS wild-type protein vs GDP-bound KRAS wild-type protein

SMILES: CCC[C@@H]1C[C@H]2C(=O)NC3(CCC3)C(=O)N(C)[C@@H](C3CCCC3)C(=O)N(C)[C@H](C(=O)N(C)C)CC(=O)N(C)[C@@H](CCC)C(=O)N[C@@H]([C@@H](C)CC)C(=O)N(C)CC(=O)N(C)[C@H]3C/C=C\CCN(C3=O)[C@@H](Cc3ccc(C)cc3)C(=O)N(C)CC(=O)N[C@@H](CCc3ccc(C(F)(F)F)c(Cl)c3)C(=O)N2C1 [PP2238]
- pKd ([1]; SPR, Single Cycle Kinetics): 9.70
- NRAS/KRAS (ratio of KD value for NRAS to KD value for KRAS) [2, 7]: A (a compound having 10 or more and less than 20 is denoted as A)
- HRAS/KRAS (ratio of KD value for HRAS to KD value for KRAS) [3, 8]: A (a compound having 10 or more and less than 20 is denoted as A)

SMILES: CCO[C@@H]1C[C@H]2C(=O)NC3(CC(C)(C)C3)C(=O)N(C)[C@@H](C3CCCC3)C(=O)N(C)[C@H](C(=O)N(C)C)CC(=O)N(C)[C@H]3CCCC/C=C/c4ccc(cc4)C[C@@H](C(=O)N(C)CC(=O)N[C@@H](CCc4ccc(C(F)(F)F)c(OC)c4)C(=O)N2C1)N1CC/C=C\C[C@@H](C1=O)N(C)C(=O)CN(C)C(=O)[C@H]([C@@H](C)CC)NC3=O [PP1832]
- pKd ([1]; SPR, Single Cycle Kinetics): 10.40
- NRAS/KRAS (KD ratio) ([2]; ratio of KD for GDP-bound NRAS wild-type protein to KD for KRAS): B (a compound having 3 or more and less than 10 is denoted as B)
- HRAS/KRAS (KD ratio) ([3]; ratio of KD for GDP-bound HRAS wild-type protein to KD for KRAS): B (a compound having 3 or more and less than 10 is denoted as B)

SMILES: CCC[C@H]1C(=O)N[C@@H]([C@@H](C)CC)C(=O)N(C)CC(=O)N(C)[C@H]2C/C=C\CCN(C2=O)[C@@H](Cc2ccc(C)cc2)C(=O)N(C)CC(=O)N[C@@H](CCc2ccc(C(F)(F)F)c(OC)c2)C(=O)N2C[C@H](OCC)C[C@H]2C(=O)NC2(CC(C)(C)C2)C(=O)N(C)[C@@H](C(CC)CC)C(=O)N(C)[C@H](C(=O)N(C)C)CC(=O)N1C [PP2068]
- pKd ([1]; SPR, Single Cycle Kinetics): 9.44
- NRAS/KRAS (ratio of KD value for NRAS to KD value for KRAS) [2, 7]: A (a compound having 10 or more and less than 20 is denoted as A)
- HRAS/KRAS (ratio of KD value for HRAS to KD value for KRAS) [3, 8]: B (a compound having 3 or more and less than 10 is denoted as B)

The next lines start with results.

- pKd [1, 4]: 9.89
SMILES: CC[C@H](C)[C@@H]1NC(=O)[C@H](CC2CC2)N(C)C(=O)C[C@@H](C(=O)N(C)C)N(C)C(=O)[C@H](C2CCCC2)N(C)C(=O)C2(CCC2)NC(=O)[C@@H]2[C@@H](OCC(F)F)CCN2C(=O)[C@H](CCc2cc(F)c(C(F)(F)F)c(F)c2)NC(=O)CN(C)C(=O)[C@H](Cc2ccc(C(F)(F)F)cc2)N2CC/C=C\C[C@@H](C2=O)N(C)C(=O)CN(C)C1=O [PP1533]
- NRAS/KRAS (ratio of KD value for NRAS to KD value for KRAS) [2, 5]: AA (a compound having 20 or more is denoted as AA)
- HRAS/KRAS (ratio of KD value for HRAS to KD value for KRAS) [3, 6]: A (a compound having 10 or more and less than 20 is denoted as A)

- pKd ([1]; SPR Single Cycle Kinetics, 1:1 binding model): 7.96
SMILES: CCO[C@@H]1C[C@H]2C(=O)NC3(CCC3)C(=O)N(C)[C@@H](C3CCCC3)C(=O)N(C)[C@H](C(=O)N3CCOCC3)CC(=O)N(C)C[C@@H](C)C(=O)N[C@@H]([C@@H](C)CC)C(=O)N(C)CC(=O)N(C)[C@H]3CCCCN(C3=O)[C@@H](Cc3ccc(C(F)(F)F)cc3)C(=O)N(C)CC(=O)N[C@@H](CCc3cc(F)c(C(F)(F)F)c(F)c3)C(=O)N2C1 [PP0721]
- NRAS/KRAS (ratio of KD value with respect to NRAS to KD value with respect to KRAS) [2, 7]: B (a compound having 3 or more and less than 10 is denoted as B)
- HRAS/KRAS (ratio of KD value with respect to HRAS to KD value with respect to KRAS) [3, 8]: B (a compound having 3 or more and less than 10 is denoted as B)

- pKd [1, 4]: 10.27
SMILES: CC[C@H](C)[C@@H]1NC(=O)[C@H](CC2CC2)N(C)C(=O)C[C@@H](C(=O)N(C)C)N(C)C(=O)[C@H](C2CCCC2)N(C)C(=O)C2(CCC2)NC(=O)[C@@H]2C[C@H](C)CN2C(=O)[C@H](CCc2cc(F)c(C(F)(F)F)c(F)c2)NC(=O)CN(C)C(=O)[C@H](Cc2ccc(C(F)(F)F)cc2)N2CC/C=C\C[C@@H](C2=O)N(C)C(=O)CN(C)C1=O [PP1499, (2S,8S,12S,14S,20S,23S,27S,30S,36S,38Z)-20-cyclopentyl-27-(cyclopropylmethyl)-8-[2-[3,5-difluoro-4-(trifluoromethyl)phenyl]ethyl]-N,N,4,12,19,22,26,32,35-nonamethyl-30-[(1S)-1-methylpropyl]-3,6,9,15,18,21,25,28,31,34,42-undecaoxo-2-[[4-(trifluoromethyl)phenyl]methyl]spiro[1,4,7,10,16,19,22,26,29,32,35-undecazatricyclo[34.5.1.0^10,14]dotetracont-38-ene-17,1′-cyclobutane]-23-carboxamide]
- NRAS/KRAS (ratio of KD value for NRAS to KD value for KRAS) [2, 5]: A (a compound having 10 or more and less than 20 is denoted as A)
- HRAS/KRAS (ratio of KD value for HRAS to KD value for KRAS) [3, 6]: B (a compound having 3 or more and less than 10 is denoted as B)

- pKd ([1]; SPR, Single Cycle Kinetics): 9.28
SMILES: CCO[C@@H]1C[C@H]2C(=O)NC3(CC(F)(F)C3)C(=O)N(C)[C@@H](C3CCCC3)C(=O)N(C)[C@H](C(=O)N3CCOCC3)CC(=O)N(C)[C@@H](COC)C(=O)N[C@@H]([C@@H](C)CC)C(=O)N(C)CC(=O)N(C)[C@H]3CCCCCN(C3=O)[C@@H](Cc3ccc(C(F)(F)F)cc3)C(=O)N(C)CC(=O)N[C@@H](CCc3cc(F)c(C(F)(F)F)c(F)c3)C(=O)N2C1 [PP0843]
- NRAS/KRAS (ratio of KD value for NRAS to KD value for KRAS) [2, 7]: B (a compound having 3 or more and less than 10 is denoted as B)
- HRAS/KRAS (ratio of KD value for HRAS to KD value for KRAS) [3, 8]: B (a compound having 3 or more and less than 10 is denoted as B)
